Data as given in patent publication US20100130604A1, “USE OF ROSMARINIC ACID IN MANUFACTURE OF MEDICAMENTS FOR TREATING OR PREVENTING HEPATIC AND RENAL DISEASES” (SHANGDONG LUYE NATURAL DRUG RESEARCH AND DEVELOPMENT CO., …, priority 2006, published 2010).

How the values were obtained:
[1] = tested on: proximal tubular epithelial cells (PTECs); test: Proliferation of PTECs cultured in glucose-rich medium (MTT); type: cell-based; conditions: for OD value: 72 h, 570 nm
Protocol: A 1000 mg/L stock solution of RA in DMEM medium was prepared, and filtered through 0.22 μm microfilter to remove bacteria. The stock was then aliquoted in appropriate containers and stored at −20° C. in darkness. It is good for use within 2 weeks. DMEM supplemented with 2% fetal bovine serum (FBS) was used to dilute the stock to desired concentrations before use.
Remove frozen vials storing PTECs from liquid nitrogen, thaw in water bath at 37° C. for 5 min, centrifuge at 1000 r·min^−1 for 5 min, and discard the supernatant. Blow up the cells with culture medium and transfer them into flasks for static culture. The medium was DMEM supplemented with 10 v % FBS, 1×10^5 U·L^−1 penicillin, 100 mg·L^−1 streptomycin. The cells are cultured at 37° C., 5% CO2, and saturated humidity for 2-3 days before 0.25% trypsin were used to digest the cells which were then passaged.
PTEC cells at logarithmic phase were seeded to 96-well plate at the density of 1×10^5/mL. The medium was replaced with serum-free DMEM 24 hours later and the cell culture was cultured statically for 24 hours. Discard the supernatant, dose the wells according to table 3: normal control group (NG, 5 mmol·L^−1), high glucose group (HG, 30 mmol·L^−1), NG+10 mg/L RA group, NG+50 mg/L of RA group, HG+10 mg/L of RA group, HG50 mg/L of RA group, with 6 wells in each group. Incubate for 72 hours respectively. Add 20 μL of MTT (5 mg·mL^−1) to each well 4 hours before the experiment is terminated. Remove supernatant 4 hours later, and 150 μL of DMSO was added to each well, shake for 10 min and use ELISA reader to determine OD value at 570 nm.

[2] = tested on: CTGF; test: Western blot of intracellular CTGF protein expression in PTECs; type: cell-based; conditions: for CTGF expression: 72 h, relative OD of band
Protocol: Western blot method was used to detect intracellular CTGF expression. PTEC cells at logarithmic phase were seeded to 96-well plate at the density of 1×10^5/mL. The medium was replaced with serum-free DMEM 24 hours later and the cell culture was cultured statically for 24 hours. Treat the wells as mentioned above. 72 hours later, cellular protein was extracted from the cell lysate according to modified Lowry method (Peterson G L. A simplification of the protein assay method of Lowry et al, which is more generally applicable. Anal Biochem, 1977, 83:346). 75 μg of total protein was loaded on each lane and all lanes were subject to 12% SDS-PAGE before the protein was transferred onto nitrocellulose membrane. Dye with Ponceau S (Sigma) to confirm transference and mark relative molecular weight standards. The membrane was then blocked in 5% solution of skimmed milk powder in TBST for 1 hour at room temperature. After washing, multiclonal goat-anti-rat anti-CTGF antibody (1:500, from Santa Cruz Co. Ltd.) was added and incubated overnight at 4° C. Then HRP-labeled anti-goat IgG secondary antibody (1:2 500, from Santa Cruz Co. Ltd.) was added and incubated at 37° C. for 1 hour. After rinsing, develop with 3,3-diaminobenzidine (DAB). Relative OD values of each band were analysed and the data are presented as χ±s. SPSS software was used in statistical analysis. ANOVA was applied for multi-group comparison.

[3] = tested on: renal interstitial fibrosis in rats; test: Renal interstitial fibrosis in rats with unilateral urethral obstruction; type: in vivo, Sprague Dawley rats; conditions: for HYP: left kidney; for HYP / FN: day 10; for FN: serum
Protocol: 130 rats were randomly divided into 13 groups, namely, a sham operation group, a model group, benazapril p.o. Group at 10 mg/kg, RA i.v. groups at 2.5 mg/kg, 5 mg/kg, 25 mg/kg, 75 mg/kg, and 150 mg/kg of RA, and RA p.o. groups at 2.5 mg/kg, 5 mg/kg, 25 mg/kg, 150 mg/kg, and 300 mg/kg of RA. The animals were acclimated for a week before they were all anaesthetised with an i.p. dose of 10% chloral hydrate at 3.0mL/kg and placed on the operating table in right lateral position. The rats were shaved and the operating area was disinfected using iodine tincture and 75% ethanol. The left urethra was exposed and isolated after a left lateral incision was made on the abdominal area and skin, muscles and all other layers of the abdominal wall were incised sequentially. In the sham group, the left urethra was only isolated without being ligated or cut off. In all other animals, the left urethra was ligated with No. 4 suture and obstructed followed by closure of the abdominal wall layer by layer. The animals were anaesthetised again with 10% chloral hydrate 10 days later, blood was collected and serum was separated to determine FN levels. The left kidney was removed after thorough rinsing and then fixed in 4% paraformaldehyde buffer. HYP level was determined according to instructions provided with the kit.

O=C(/C=C/c1ccc(O)c(O)c1)O[C@H](Cc1ccc(O)c(O)c1)C(=O)O [RA, R(+)2-{[3-(3,4-dihydroxylphenyl-(oxo-2-propenyl)oxy]3,4-dihydroxylphenylpropionic acid]}]
OD value ([1]; HG (30 mmol/L glucose) + 10 mg/L RA): 1.289 ± 0.041 | OD value ([1]; HG (30 mmol/L glucose) + 50 mg/L RA): 1.317 ± 0.077 | OD value ([1]; NG (5 mmol/L glucose) + 10 mg/L RA): 1.168 ± 0.106 | OD value ([1]; NG (5 mmol/L glucose) + 50 mg/L RA): 1.052 ± 0.036 | PTECs proliferation induced by high level of glucose ([1]; certain concentrations of RA, P<0.05): can inhibit PTECs proliferation induced by high level of glucose | intracellular CTGF expression compared with the HG group ([2]; 10 mg/L and 50 mg/L RA): significantly down-regulated | CTGF expression ([2]; HG + 10 mg/L RA): 5244 ± 106 | CTGF expression ([2]; HG + 50 mg/L RA): 5345 ± 95 | kidney lesions, light microscopic examination ([3]; RA treated animals vs model group): improvement of various degrees in lesions | FN and HYP levels vs model group ([3]; i.v. 2.5, 5, 25, 75, 150 mg/kg, p.o. 5, 25, 150, 300 mg/kg, p<0.05 or 0.01): can all significantly reduce FN and HYP levels | HYP ([3]; i.v. 2.5 mg/kg): 612 ± 102 µg/g | HYP ([3]; i.v. 5 mg/kg): 605 ± 118 µg/g | HYP ([3]; i.v. 25 mg/kg): 573 ± 98 µg/g | HYP ([3]; i.v. 75 mg/kg): 533 ± 94 µg/g | HYP ([3]; i.v. 150 mg/kg): 526 ± 121 µg/g | HYP ([3]; p.o. 2.5 mg/kg): 705 ± 162 µg/g | HYP ([3]; p.o. 5 mg/kg): 612 ± 118 µg/g | HYP ([3]; p.o. 25 mg/kg): 573 ± 98 µg/g | HYP ([3]; p.o. 150 mg/kg): 563 ± 94 µg/g | HYP ([3]; p.o. 300 mg/kg): 556 ± 121 µg/g | FN ([3]; i.v. 2.5 mg/kg): 22.7 ± 6.0 mg/L | FN ([3]; i.v. 5 mg/kg): 19.9 ± 6.3 mg/L | FN ([3]; i.v. 25 mg/kg): 17.7 ± 6.2 mg/L | FN ([3]; i.v. 75 mg/kg): 16.5 ± 4.3 mg/L | FN ([3]; i.v. 150 mg/kg): 16.4 ± 4.4 mg/L | FN ([3]; p.o. 2.5 mg/kg): 22.4 ± 6.5 mg/L | FN ([3]; p.o. 5 mg/kg): 19.8 ± 6.2 mg/L | FN ([3]; p.o. 25 mg/kg): 17.5 ± 6.3 mg/L | FN ([3]; p.o. 150 mg/kg): 17.2 ± 4.3 mg/L | FN ([3]; p.o. 300 mg/kg): 17.2 ± 4.4 mg/L
